Assay results taken from PubChem BioAssay (NCI).
“And” between values parts separate entries of the source, which are not always exact repeats. Identical values can stand only once.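 Results reflect a 48-hour exposure of cells in 96-well plates to compound at five concentrations. Abbreviation: GI50, concentration required for 50% inhibition of growth. The concentration for full growth arrest is given as TGI.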

Columns and labels:
Test in all cases: NCI tumour cell line growth inhibition, 48 h
SNB-75 CNS = system: SNB-75 CNS
HOP-62 NSCLC = system: HOP-62 NSCLC
HOP-92 NSCLC = system: HOP-92 NSCLC
SNB-19 CNS = system: SNB-19 CNS
ACHN renal = system: ACHN renal
786-0 renal = system: 786-0 renal
OVCAR-5 ovarian = system: OVCAR-5 ovarian
K-562 leukemia = system: K-562 leukemia
UACC-62 melanoma = system: UACC-62 melanoma
UO-31 renal = system: UO-31 renal

SMILES | TGI (SNB-75 CNS) | TGI (HOP-62 NSCLC) | TGI (HOP-92 NSCLC) | TGI (SNB-19 CNS) | TGI (ACHN renal) | TGI (786-0 renal) | TGI (OVCAR-5 ovarian) | TGI (K-562 leukemia) | TGI (UACC-62 melanoma) | TGI (UO-31 renal) | GI50 (SNB-75 CNS) | GI50 (HOP-62 NSCLC) | GI50 (HOP-92 NSCLC) | GI50 (SNB-19 CNS) | GI50 (UO-31 renal) | GI50 (ACHN renal) | GI50 (786-0 renal) | GI50 (OVCAR-5 ovarian) | GI50 (K-562 leukemia) | GI50 (UACC-62 melanoma)
COc1ccc(NC(=O)C2=CC(=O)c3ccc(O)cc3C2=O)c(OC)c1 | > 100 µM | > 100 µM | > 100 µM | > 100 µM | > 100 µM | > 100 µM | > 100 µM | > 100 µM | > 100 µM | – | – | – | – | – | – | – | – | – | – | –
O=C(O)c1c[nH]c2c(ccc3[nH]cc(C(=O)O)c(=O)c32)c1=O | 75 µM | > 100 µM | > 100 µM | > 100 µM | > 100 µM | > 100 µM | > 100 µM | > 100 µM | > 100 µM | > 100 µM | – | – | – | – | – | – | – | – | – | –
O=C(O)c1ccccc1C1c2ccc(Cl)cc2Oc2cc(Cl)ccc21 | > 100 µM | > 100 µM | > 100 µM | > 100 µM | > 100 µM | > 100 µM | > 100 µM | > 100 µM | > 100 µM | > 100 µM | – | – | – | – | – | – | – | – | – | –
O=C(NCCCl)NCc1ccccc1 | > 100 µM | > 100 µM | > 100 µM | > 100 µM | > 100 µM | > 100 µM | > 100 µM | > 100 µM | > 100 µM | > 100 µM | – | – | – | – | – | – | – | – | – | –
CCN(CC)CC(O)c1cc(-c2ccc(Cl)cc2)nc2cc(Cl)ccc12 (stereo unspecified) | 7.14 µM | 4.05 µM | 7.38 µM | 16 µM | 3.39 µM | 3.41 µM | 5.58 µM | 3.55 µM | 3.1 µM | 3.27 µM | 1690 nM | 1930 nM | 1830 nM | 4.34 µM | 1060 nM | 1640 nM | 1900 nM | 2.11 µM | 1750 nM | 1620 nM
COc1cccc(/C=C2\CCc3ccccc3C2=O)c1 | 36 µM | 29.2 µM | 35.4 µM | 26.7 µM | 25.3 µM | 39.9 µM | 42.7 µM | 57.1 µM | 25.7 µM | 24.3 µM | 16900 nM | 14600 nM | 13300 nM | 12.4 µM | 10900 nM | 10200 nM | 18200 nM | 17.6 µM | 3290 nM | 10800 nM
Clc1ccc(Nc2ncnc3c2sc2ncccc23)c(Cl)c1 | > 30.9 µM | > 19.7 µM | 21.6 µM | > 100 µM | 3.95 µM | > 100 µM | > 100 µM | > 100 µM | 8.37 µM | 4.32 µM | 68.9 nM | < 10 nM | 63.2 nM | < 0.0121 µM | < 10 nM | < 10 nM | < 10 nM | 0.0576 µM | 270 nM | 27.9 nM
CC(C)=Cc1cc(C(=O)NCCNC(=O)c2cc(C=C(C)C)nc(NC#N)n2)nc(NC#N)n1 | > 100 µM | > 100 µM | > 100 µM | > 100 µM | > 100 µM | > 100 µM | > 100 µM | > 100 µM | > 100 µM | > 100 µM | – | – | – | – | – | – | – | – | – | –
COc1ccc(Nc2ncccc2C(=O)NCc2cn(Cc3cccc(Oc4ccccc4)c3)nn2)c(OC)c1 | > 84.5 µM | > 100 µM | > 100 µM | > 100 µM | > 100 µM | > 100 µM | > 100 µM | > 100 µM | > 29.6 µM | > 100 µM | 3640 nM | 5580 nM | 36100 nM | 3.64 µM | 5540 nM | 3940 nM | 3920 nM | 6.72 µM | 1580 nM | 1190 nM
CCC1OC(=O)CC(O)C(C)C(OC2OC(C)CC(N(C)C)C2O)C(CC=O)CC(C)C(=O)/C=C/C2(C)OC2C1C (stereo unspecified) | 40.8 µM | 71.7 µM | 64.6 µM | 30.6 µM | 56.1 µM | 40.9 µM | > 100 µM | 24.3 µM | 28.9 µM | 80.4 µM | – | – | – | – | – | – | – | – | – | –
COc1ccc(/C=C/C(=O)c2ccccc2)cc1OC | 28.9 µM and 35.1 µM | 31.1 µM and 43 µM | 41 µM and 79.4 µM | 24.6 µM and 26.7 µM | 29.4 µM and 28.5 µM | 17.9 µM and 33.7 µM | 33.5 µM and 44.1 µM | > 100 µM | 27.1 µM and 27.3 µM | 27.2 µM and 27.3 µM | 16700 nM | 19300 nM | 26300 nM | – | – | – | 14600 nM | 21.4 µM | 3950 nM | 11700 nM
COc1ccc(OC)c(-c2cc(=O)c3cc4c(cc3[nH]2)OCO4)c1 | > 38.1 µM | 67.7 µM | 41.3 µM | > 100 µM | > 80.2 µM | > 100 µM | > 100 µM | > 100 µM | > 100 µM | > 100 µM | – | – | – | – | – | – | – | – | – | –
Cc1cc2nc3c4cc([N+](=O)[O-])ccc4n(CCN(C)C)c3nc2cc1C | 2.7 µM | > 40 µM | 13.3 µM | > 32 µM | 1.68 µM | 3.02 µM | 9.82 µM | > 100 µM | 2.13 µM | 2.52 µM | 842 nM | 579 nM | 648 nM | 0.487 µM | 187 nM | 297 nM | 628 nM | 0.651 µM | 366 nM | 594 nM
COc1cc([C@@H]2c3cc4c(cc3[C@@H](NC(=O)c3ccc(OC(C)=O)cc3)C3COC(=O)[C@@H]32)OCO4)cc(OC)c1O (stereo partly specified) | 5.86 µM | 3.12 µM | 7.05 µM | > 100 µM | 3.16 µM | 3.47 µM | 22.4 µM | 47.2 µM | 3.14 µM | 30.6 µM | – | – | – | – | – | – | – | – | – | –
COc1ccc2c(c1)C(=O)c1c-2c(OCCN2CCCCC2)nc2ccc(OC)cc12 | 11.2 µM | 11.2 µM | 19.7 µM | 15.1 µM | 3.26 µM | 2.59 µM | 19.7 µM | 2.76 µM | 6.3 µM | 1.67 µM | 1270 nM | 595 nM | 2410 nM | 0.66 µM | 259 nM | 425 nM | 1040 nM | 3.74 µM | 413 nM | 1350 nM
COc1cc(/C=C2\CC3C4CCC5=CC(=O)CC[C@]5(C)C4CC[C@]3(C)C2=O)ccc1OCCN1CCCCC1 (stereo partly specified) | 24.8 µM | 6.66 µM | 8.34 µM | 31 µM | 13.1 µM | 4.21 µM | 28.5 µM | 16.6 µM | 5.84 µM | > 100 µM | 6970 nM | 2360 nM | 1450 nM | 6.16 µM | 7870 nM | 3840 nM | 1920 nM | 8.26 µM | 2800 nM | 2390 nM
